From patent US10654808B2, “Tyrosine kinase inhibitor and pharmaceutical composition comprising same” (GUANGDONG RAYNOVENT BIOTECH CO., LTD., priority 2015, dated 2020)

Columns and labels:
Format in all cases: biochemical
PDGFRB = biological target: T1, PDGFRB (Homo sapiens, UniProt P09619); assay: Z'-LYTE in vitro enzyme activity assay, PDGFRB; conditions: 100 μM ATP, 60 minutes, room temperature; read-out: IC50 detected by Z'-LYTE, PDGFRB
T1 construct: purchased Millipore
Protocol: (§1) The enzyme activity was measured by Z′-LYTE™ Detection Kinase Assay. The IC50 value of the compounds was used as an index to evaluate the inhibitory effect of the compounds on VEGFR2, FGFR1 and PDGFRB.
(§2) Recombinant human VEGFR2 and FGFR1 proteases were purchased from Life technology, PDGFRB Protease was purchased from Millipore.
(§3) Z-LYTE™ Kit Tyr1 and Tyr4 were purchased from Life technology. Multi-microplate reader, Envision (PerkinElmer) read board was used.
(§4) The test compounds were diluted 3 times with a concentration gradient, the final concentration was from 10 μM to 0.17 nM with a total of 11 concentrations, and each concentration had two parallel holes; the content of DMSO in the assay was 1%.
(§5) 40 nM PDGFRB protein kinase, 2 μM Tyr4 peptide, 100 μM ATP, 50 mM HEPES (pH 7.5), 10 mM MgCl2, 1 mM EGTA, 0.01% BRIJ-35, 2 mM MnCl2, 1 mM DTT. The detector plate was Black Proxiplate 384-Plus plate (PerkinElmer), the reaction was performed at room temperature for 60 minutes, and the reaction system was 10 μl.
(§6) The reaction was stopped by adding 5 μl of DV reagent B (1:128) to the kinase reaction solution and incubated at 23° C. for 60 minutes. The Envision instrument was used to read the plate.
(§7) The data was converted to phosphorylation rate and inhibition rate and the 4 parameter curve fitting (Model 205 in XLFIT5, iDBS) was used to get IC50 data of the compounds.

FGFR1 = biological target: T2, FGFR1 (Homo sapiens, UniProt P11362); assay: Z'-LYTE in vitro enzyme activity assay, FGFR1; conditions: 25 μM ATP, 60 minutes, room temperature; read-out: IC50 detected by Z'-LYTE, FGFR1
T2 construct: purchased Life technology
T2 sequence (P11362 22-822): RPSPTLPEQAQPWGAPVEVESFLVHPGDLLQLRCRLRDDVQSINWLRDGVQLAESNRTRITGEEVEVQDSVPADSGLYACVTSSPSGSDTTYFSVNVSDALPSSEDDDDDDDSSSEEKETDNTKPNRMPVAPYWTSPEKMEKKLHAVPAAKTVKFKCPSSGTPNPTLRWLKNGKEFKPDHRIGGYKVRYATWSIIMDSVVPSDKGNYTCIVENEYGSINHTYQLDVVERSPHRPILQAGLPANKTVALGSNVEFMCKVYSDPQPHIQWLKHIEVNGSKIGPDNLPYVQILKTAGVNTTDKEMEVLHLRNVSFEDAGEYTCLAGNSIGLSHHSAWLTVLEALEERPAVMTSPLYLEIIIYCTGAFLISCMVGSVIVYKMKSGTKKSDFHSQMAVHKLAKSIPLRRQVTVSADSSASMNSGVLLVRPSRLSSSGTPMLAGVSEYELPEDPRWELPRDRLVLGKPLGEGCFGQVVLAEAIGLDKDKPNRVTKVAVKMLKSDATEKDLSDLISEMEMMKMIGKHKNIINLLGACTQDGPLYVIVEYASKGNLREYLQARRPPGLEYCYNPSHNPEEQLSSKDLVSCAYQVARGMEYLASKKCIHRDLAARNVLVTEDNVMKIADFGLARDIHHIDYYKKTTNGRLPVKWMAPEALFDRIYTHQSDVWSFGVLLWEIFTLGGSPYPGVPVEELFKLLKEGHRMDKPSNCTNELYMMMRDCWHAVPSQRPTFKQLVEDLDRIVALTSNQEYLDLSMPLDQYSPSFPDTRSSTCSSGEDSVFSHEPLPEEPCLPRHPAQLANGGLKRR
Protocol: as §1, §2, §3, §4
as §5, with “1” for “40”, “FGFR1” for “PDGFRB”, “25” for “100”
as §6, §7

VEGFR2 = biological target: T3, VEGFR2 (Homo sapiens, UniProt P35968); assay: Z'-LYTE in vitro enzyme activity assay, VEGFR2; conditions: 100 μM ATP, 60 minutes, room temperature; read-out: IC50 detected by Z'-LYTE, VEGFR2
T3 construct: purchased Life technology
T3 sequence (P35968 20-1356): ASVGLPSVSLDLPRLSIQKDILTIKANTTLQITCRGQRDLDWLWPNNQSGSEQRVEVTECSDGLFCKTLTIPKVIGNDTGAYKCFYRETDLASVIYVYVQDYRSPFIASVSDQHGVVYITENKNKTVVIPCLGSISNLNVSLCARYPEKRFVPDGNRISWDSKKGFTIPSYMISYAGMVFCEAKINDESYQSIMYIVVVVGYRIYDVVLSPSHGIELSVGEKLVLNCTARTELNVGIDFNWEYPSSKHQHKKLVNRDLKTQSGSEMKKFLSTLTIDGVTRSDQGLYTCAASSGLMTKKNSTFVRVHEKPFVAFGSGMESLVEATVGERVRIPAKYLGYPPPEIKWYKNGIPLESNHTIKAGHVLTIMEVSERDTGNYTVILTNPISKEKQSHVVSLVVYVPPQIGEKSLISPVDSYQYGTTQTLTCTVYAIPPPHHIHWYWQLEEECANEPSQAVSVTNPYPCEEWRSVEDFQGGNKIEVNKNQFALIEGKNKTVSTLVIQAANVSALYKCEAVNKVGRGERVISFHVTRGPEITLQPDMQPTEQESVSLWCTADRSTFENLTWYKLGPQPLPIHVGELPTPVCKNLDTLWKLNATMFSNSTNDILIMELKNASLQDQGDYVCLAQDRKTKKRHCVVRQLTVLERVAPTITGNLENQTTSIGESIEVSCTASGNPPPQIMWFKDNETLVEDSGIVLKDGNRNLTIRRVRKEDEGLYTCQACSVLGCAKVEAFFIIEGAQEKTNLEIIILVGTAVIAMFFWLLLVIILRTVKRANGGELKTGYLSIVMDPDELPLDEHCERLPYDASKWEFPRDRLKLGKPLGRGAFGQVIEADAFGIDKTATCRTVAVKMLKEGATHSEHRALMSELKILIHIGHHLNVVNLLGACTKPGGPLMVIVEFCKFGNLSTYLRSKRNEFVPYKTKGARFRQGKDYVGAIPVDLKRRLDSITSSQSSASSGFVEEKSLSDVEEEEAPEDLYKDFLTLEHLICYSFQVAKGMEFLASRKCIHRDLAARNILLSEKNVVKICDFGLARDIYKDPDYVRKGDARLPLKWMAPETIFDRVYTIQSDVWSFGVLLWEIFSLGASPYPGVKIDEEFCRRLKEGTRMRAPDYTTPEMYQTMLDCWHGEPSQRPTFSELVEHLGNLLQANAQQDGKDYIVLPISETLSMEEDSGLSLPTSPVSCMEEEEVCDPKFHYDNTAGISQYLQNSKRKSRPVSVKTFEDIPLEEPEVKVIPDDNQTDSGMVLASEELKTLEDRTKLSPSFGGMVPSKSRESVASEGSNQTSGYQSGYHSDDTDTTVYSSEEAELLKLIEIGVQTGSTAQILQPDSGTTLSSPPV
Protocol: as §1, §2, §3, §4
3 nM VEGFR2 protein kinase, 2 μM Tyr1 peptide, 100 μM ATP, 50 mM HEPES (pH 7.5), 10 mM MgCl2, 1 mM EGTA, 0.01% BRIJ-35. The detector plate was Black Proxiplate 384-Plus plate (PerkinElmer), the reaction was performed at room temperature for 60 minutes, and the reaction system was 10 μl.
as §6, §7

T1 sequence (P09619 33-1106): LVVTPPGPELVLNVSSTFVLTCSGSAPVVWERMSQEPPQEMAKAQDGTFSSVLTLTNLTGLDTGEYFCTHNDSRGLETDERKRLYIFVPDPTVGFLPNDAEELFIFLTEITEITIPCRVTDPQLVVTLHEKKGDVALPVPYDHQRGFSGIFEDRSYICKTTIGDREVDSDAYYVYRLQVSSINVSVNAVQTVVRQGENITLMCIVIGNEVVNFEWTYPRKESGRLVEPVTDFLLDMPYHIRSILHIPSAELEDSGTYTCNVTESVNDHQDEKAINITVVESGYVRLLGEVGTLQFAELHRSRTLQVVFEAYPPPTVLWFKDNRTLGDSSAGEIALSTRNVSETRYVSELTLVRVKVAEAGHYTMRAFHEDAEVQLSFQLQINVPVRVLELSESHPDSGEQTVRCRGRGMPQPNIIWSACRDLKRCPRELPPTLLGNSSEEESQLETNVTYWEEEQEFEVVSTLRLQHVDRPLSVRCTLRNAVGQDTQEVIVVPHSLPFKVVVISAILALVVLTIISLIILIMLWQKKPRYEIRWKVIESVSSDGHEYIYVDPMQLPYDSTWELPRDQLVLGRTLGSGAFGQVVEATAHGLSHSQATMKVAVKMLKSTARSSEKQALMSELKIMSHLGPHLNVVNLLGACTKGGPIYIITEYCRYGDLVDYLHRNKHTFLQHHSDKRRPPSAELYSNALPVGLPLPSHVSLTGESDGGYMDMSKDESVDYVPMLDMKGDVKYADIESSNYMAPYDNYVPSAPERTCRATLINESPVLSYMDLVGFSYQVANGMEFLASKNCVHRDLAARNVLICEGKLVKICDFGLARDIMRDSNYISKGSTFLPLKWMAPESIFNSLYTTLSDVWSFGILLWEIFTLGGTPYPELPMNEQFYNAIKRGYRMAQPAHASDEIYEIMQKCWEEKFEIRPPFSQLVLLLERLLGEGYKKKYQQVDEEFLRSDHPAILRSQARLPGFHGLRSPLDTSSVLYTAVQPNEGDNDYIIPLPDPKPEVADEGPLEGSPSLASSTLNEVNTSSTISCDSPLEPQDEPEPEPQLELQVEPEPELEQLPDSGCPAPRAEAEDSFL

| SMILES | IC50 (PDGFRB) [nM] | IC50 (FGFR1) [nM] | IC50 (VEGFR2) [nM] |
| --- | --- | --- | --- |
| COc1cc2nccc(Oc3ccc(N4CCNC4=O)c(Cl)c3)c2cc1C(N)=O [Example 165] | 200 to 1000 | 200 to 1000 | 200 to 1000 |
| COc1cc2nccc(Oc3ccc(N4C(=O)CNC4=S)c(Cl)c3)c2cc1C(N)=O [Example 166] | 50 to 200 | 200 to 1000 | < 50 |
| COc1cc2nccc(Oc3ccc(N4CC(=O)NC4=S)c(Cl)c3)c2cc1C(N)=O [Example 167] | < 50 | 200 to 1000 | < 50 |
| COc1cc2nccc(Oc3ccc(NC(=O)C4(C(=O)NC5CC5)CC4)c(Cl)c3)c2cc1C(N)=O [Example 168] | 200 to 1000 | 200 to 1000 | 200 to 1000 |
| COc1ccc2c(Oc3ccc(NC(=S)NC4CC4)c(Cl)c3)ccnc2c1 [Example 170] | 200 to 1000 | 200 to 1000 | < 50 |
| COc1ccc2c(Oc3ccc(NC(=S)N4CC(F)(F)C4)c(Cl)c3)ccnc2c1 [Example 171] | 200 to 1000 | 200 to 1000 | 200 to 1000 |
| CC1(C)NC(=O)c2cc3c(Oc4ccc(NC(=S)NC5CC5)c(Cl)c4)ccnc3cc2O1 [Example 172] | 200 to 1000 | 200 to 1000 | 200 to 1000 |
| CCC1NC(=O)c2cc3c(Oc4ccc(NC(=S)NC5CC5)c(Cl)c4)ccnc3cc2O1 (stereo not drawn) [Example 173] | 200 to 1000 | 200 to 1000 | 200 to 1000 |
| COc1cc2nccc(Oc3ccc(NC(=S)NC4CC4)c(Cl)c3)c2cc1C(C)(C)O [Example 175] | 200 to 1000 | 200 to 1000 | 200 to 1000 |
| COc1cc2nccc(Oc3ccc(CC(=O)N4CCCC4)cc3)c2cc1C(N)=O [Example 176] | 200 to 1000 | 200 to 1000 | 200 to 1000 |
| COc1cc2nccc(Oc3ccc(CC(=O)N4CC(F)(F)C4)cc3)c2cc1C(N)=O [Example 177] | 50 to 200 | 200 to 1000 | 200 to 1000 |
| COC(=O)c1cc2c(Oc3ccc(NC(=S)N4CC(F)(F)C4)c(Cl)c3)ccnc2cc1OC [Example 178] | 200 to 1000 | 200 to 1000 | 200 to 1000 |
| COc1cc2nccc(Oc3ccc(NC(=S)N4CC(F)(F)C4)c(Cl)c3)c2cc1NC(C)=O [Example 180] | 200 to 1000 | 200 to 1000 | 200 to 1000 |
| COc1cc2nccc(Oc3ccc(NC(=S)N4CCCC4)c(Cl)c3)c2cc1NC(C)=O [Example 181] | 200 to 1000 | 200 to 1000 | 200 to 1000 |
| COc1cc2nccc(Oc3ccc(NC(=S)NC4CC4)c(Cl)c3)c2cc1NC(C)=O [Example 182] | 200 to 1000 | 200 to 1000 | 50 to 200 |
| COc1cc2nccc(Oc3ccc(NC(=S)N4CC(F)(F)C4)c(Cl)c3)c2cc1C(F)(F)F [Example 184] | 200 to 1000 | 200 to 1000 | 200 to 1000 |
| COc1cc2nccc(Oc3ccc4c(C(=O)NC5CC5)c[nH]c4c3)c2cc1C(N)=O [Example 186] | 200 to 1000 | 200 to 1000 | < 50 |
| COc1cc2nccc(Oc3ccc4c(C(=O)N5CC(F)(F)C5)coc4c3)c2cc1C(N)=O [Example 187] | 200 to 1000 | 200 to 1000 | 200 to 1000 |
| COc1cc2nccc(Oc3ccc4c(C(=O)N5CCCC5)c[nH]c4c3)c2cc1C(N)=O [Example 188] | 200 to 1000 | 200 to 1000 | 200 to 1000 |
| COc1cc2nccc(Oc3ccc4c(C(=O)N5CC(F)(F)C5)c[nH]c4c3)c2cc1C(N)=O [Example 189] | 200 to 1000 | 200 to 1000 | 200 to 1000 |
| COc1cc2nccc(Oc3ccc4c(NC(=S)NC5CC5)nn(C)c4c3)c2cc1C(N)=O [Example 193] | 50 to 200 | 200 to 1000 | 200 to 1000 |
| COc1cc2nccc(Oc3cc(Cl)c4c(C(=O)N5CCCC5)coc4c3)c2cc1C(N)=O [Example 194] | 200 to 1000 | 200 to 1000 | 200 to 1000 |
| COc1cc2nccc(Oc3cc(Cl)c4c(C(=O)N5CC(F)(F)C5)coc4c3)c2cc1C(N)=O [Example 195] | 200 to 1000 | 200 to 1000 | 200 to 1000 |
